# Assay results from patent US8192962B2, “Processes for detecting toxic substances” (Daikin Industries, Ltd., priority 2001, dated 2012).
# Tested on: Unknown protein yeast genes
# Assay: DNA chip mRNA expression in yeast, unknown protein yeast genes (Table 1)
# Format: cell-based, Saccharomyces cerevisiae S288C
# Outline: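 Ratios compare mRNA levels in stressed and control S. cerevisiae. Each toxicant was applied for two hours to log-phase cultures at 25° C. at a sub-lethal, growth-inhibiting level; fluorescent cDNA (Cy3- or Cy5-dUTP) was hybridized to a genome-wide yeast chip for over 12 h at 65° C.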
smiles,measurement,setting,value
"C=CC=O [(14), acrolein]",The level of expressed mRNA in the presence of chemical substance/The level of expressed mRNA in the absence of chemical substance,"yeast gene YKL195W, incubated two hours with chemical substance",1.6
same,The level of expressed mRNA in the presence of chemical substance/The level of expressed mRNA in the absence of chemical substance,"yeast gene YKR091W, incubated two hours with chemical substance",1.9
same,The level of expressed mRNA in the presence of chemical substance/The level of expressed mRNA in the absence of chemical substance,"yeast gene YLR054C, incubated two hours with chemical substance",1.1
same,The level of expressed mRNA in the presence of chemical substance/The level of expressed mRNA in the absence of chemical substance,"yeast gene YLR149C, incubated two hours with chemical substance",1.2
same,The level of expressed mRNA in the presence of chemical substance/The level of expressed mRNA in the absence of chemical substance,"yeast gene YLR152C, incubated two hours with chemical substance",1.2
same,The level of expressed mRNA in the presence of chemical substance/The level of expressed mRNA in the absence of chemical substance,"yeast gene YLR194C, incubated two hours with chemical substance",1.2
same,The level of expressed mRNA in the presence of chemical substance/The level of expressed mRNA in the absence of chemical substance,yeast gene YLR297W,2.3
same,The level of expressed mRNA in the presence of chemical substance/The level of expressed mRNA in the absence of chemical substance,"yeast gene YLR324W, incubated two hours with chemical substance",1.4
same,The level of expressed mRNA in the presence of chemical substance/The level of expressed mRNA in the absence of chemical substance,"yeast gene YLR350W, incubated two hours with chemical substance",2.8
same,The level of expressed mRNA in the presence of chemical substance/The level of expressed mRNA in the absence of chemical substance,"yeast gene YLR387C, incubated two hours with chemical substance",1.7
same,The level of expressed mRNA in the presence of chemical substance/The level of expressed mRNA in the absence of chemical substance,yeast gene YLR460C,3.5
same,The level of expressed mRNA in the presence of chemical substance/The level of expressed mRNA in the absence of chemical substance,"yeast gene YML117W, incubated two hours with chemical substance",0.8
same,The level of expressed mRNA in the presence of chemical substance/The level of expressed mRNA in the absence of chemical substance,"yeast gene YMR009W, incubated two hours with chemical substance",1.9
same,The level of expressed mRNA in the presence of chemical substance/The level of expressed mRNA in the absence of chemical substance,"yeast gene YMR067C, incubated two hours with chemical substance",1.5
same,The level of expressed mRNA in the presence of chemical substance/The level of expressed mRNA in the absence of chemical substance,yeast gene YMR090W,6.5
same,The level of expressed mRNA in the presence of chemical substance/The level of expressed mRNA in the absence of chemical substance,"yeast gene YMR095C, incubated two hours with chemical substance",2.2
same,The level of expressed mRNA in the presence of chemical substance/The level of expressed mRNA in the absence of chemical substance,"yeast gene YMR097C, incubated two hours with chemical substance",2.1
same,The level of expressed mRNA in the presence of chemical substance/The level of expressed mRNA in the absence of chemical substance,"yeast gene YMR102C, incubated two hours with chemical substance",0.7
same,The level of expressed mRNA in the presence of chemical substance/The level of expressed mRNA in the absence of chemical substance,"yeast gene YMR107W, incubated two hours with chemical substance",8.1
same,The level of expressed mRNA in the presence of chemical substance/The level of expressed mRNA in the absence of chemical substance,"yeast gene YMR180C, incubated two hours with chemical substance",1.7
same,The level of expressed mRNA in the presence of chemical substance/The level of expressed mRNA in the absence of chemical substance,"yeast gene YMR184W, incubated two hours with chemical substance",1.5
same,The level of expressed mRNA in the presence of chemical substance/The level of expressed mRNA in the absence of chemical substance,"yeast gene YMR191W, incubated two hours with chemical substance",1.5
same,The level of expressed mRNA in the presence of chemical substance/The level of expressed mRNA in the absence of chemical substance,"yeast gene YMR295C, incubated two hours with chemical substance",1.3
same,The level of expressed mRNA in the presence of chemical substance/The level of expressed mRNA in the absence of chemical substance,"yeast gene YMR316W, incubated two hours with chemical substance",1.3
same,The level of expressed mRNA in the presence of chemical substance/The level of expressed mRNA in the absence of chemical substance,"yeast gene YNL044W, incubated two hours with chemical substance",1.2
same,The level of expressed mRNA in the presence of chemical substance/The level of expressed mRNA in the absence of chemical substance,"yeast gene YNL074C, incubated two hours with chemical substance",0.6
same,The level of expressed mRNA in the presence of chemical substance/The level of expressed mRNA in the absence of chemical substance,"yeast gene YNL092W, incubated two hours with chemical substance",1.2
same,The level of expressed mRNA in the presence of chemical substance/The level of expressed mRNA in the absence of chemical substance,"yeast gene YNL115C, incubated two hours with chemical substance",1.0
same,The level of expressed mRNA in the presence of chemical substance/The level of expressed mRNA in the absence of chemical substance,"yeast gene YNL156C, incubated two hours with chemical substance",1.4
same,The level of expressed mRNA in the presence of chemical substance/The level of expressed mRNA in the absence of chemical substance,"yeast gene YNL234W, incubated two hours with chemical substance",1.5
same,The level of expressed mRNA in the presence of chemical substance/The level of expressed mRNA in the absence of chemical substance,"yeast gene YNL281W, incubated two hours with chemical substance",1.2
same,The level of expressed mRNA in the presence of chemical substance/The level of expressed mRNA in the absence of chemical substance,"yeast gene YNL305C, incubated two hours with chemical substance",1.3
same,The level of expressed mRNA in the presence of chemical substance/The level of expressed mRNA in the absence of chemical substance,"yeast gene YNR068C, incubated two hours with chemical substance",1.8
same,The level of expressed mRNA in the presence of chemical substance/The level of expressed mRNA in the absence of chemical substance,"yeast gene YOL032W, incubated two hours with chemical substance",1.3
same,The level of expressed mRNA in the presence of chemical substance/The level of expressed mRNA in the absence of chemical substance,"yeast gene YOL036W, incubated two hours with chemical substance",1.0
same,The level of expressed mRNA in the presence of chemical substance/The level of expressed mRNA in the absence of chemical substance,"yeast gene YOL047C, incubated two hours with chemical substance",1.2
same,The level of expressed mRNA in the presence of chemical substance/The level of expressed mRNA in the absence of chemical substance,"yeast gene YOL071W, incubated two hours with chemical substance",2.5
same,The level of expressed mRNA in the presence of chemical substance/The level of expressed mRNA in the absence of chemical substance,"yeast gene YOL082W, incubated two hours with chemical substance",1.4
same,The level of expressed mRNA in the presence of chemical substance/The level of expressed mRNA in the absence of chemical substance,"yeast gene YOL083W, incubated two hours with chemical substance",1.4
same,The level of expressed mRNA in the presence of chemical substance/The level of expressed mRNA in the absence of chemical substance,"yeast gene YOL117W, incubated two hours with chemical substance",1.7
same,The level of expressed mRNA in the presence of chemical substance/The level of expressed mRNA in the absence of chemical substance,"yeast gene YOL131W, incubated two hours with chemical substance",2.3
same,The level of expressed mRNA in the presence of chemical substance/The level of expressed mRNA in the absence of chemical substance,yeast gene YOL150C,5.7
same,The level of expressed mRNA in the presence of chemical substance/The level of expressed mRNA in the absence of chemical substance,"yeast gene YOL162W, incubated two hours with chemical substance",1.4
same,The level of expressed mRNA in the presence of chemical substance/The level of expressed mRNA in the absence of chemical substance,"yeast gene YOR019W, incubated two hours with chemical substance",1.4
same,The level of expressed mRNA in the presence of chemical substance/The level of expressed mRNA in the absence of chemical substance,"yeast gene YOR197W, incubated two hours with chemical substance",0.7
same,The level of expressed mRNA in the presence of chemical substance/The level of expressed mRNA in the absence of chemical substance,"yeast gene YPL087W, incubated two hours with chemical substance",1.2
same,The level of expressed mRNA in the presence of chemical substance/The level of expressed mRNA in the absence of chemical substance,"yeast gene YPL196W, incubated two hours with chemical substance",1.6
same,The level of expressed mRNA in the presence of chemical substance/The level of expressed mRNA in the absence of chemical substance,"yeast gene YPL206C, incubated two hours with chemical substance",1.1
same,The level of expressed mRNA in the presence of chemical substance/The level of expressed mRNA in the absence of chemical substance,"yeast gene YPL222W, incubated two hours with chemical substance",1.1
same,The level of expressed mRNA in the presence of chemical substance/The level of expressed mRNA in the absence of chemical substance,"yeast gene YPR023C, incubated two hours with chemical substance",0.9
same,The level of expressed mRNA in the presence of chemical substance/The level of expressed mRNA in the absence of chemical substance,"yeast gene YPR151C, incubated two hours with chemical substance",1.4
